ChEMBL document CHEMBL1140089 (J Med Chem, 2008)

Target: MAP kinase-activated protein kinase 2 (Homo sapiens, UniProt P49137)
Assay: Inhibition of human recombinant MK2 expressed in Escherichia coli BL21(DE3) after 60 mins

MAP kinase-activated protein kinase 2, sequence (P49137 whole entry): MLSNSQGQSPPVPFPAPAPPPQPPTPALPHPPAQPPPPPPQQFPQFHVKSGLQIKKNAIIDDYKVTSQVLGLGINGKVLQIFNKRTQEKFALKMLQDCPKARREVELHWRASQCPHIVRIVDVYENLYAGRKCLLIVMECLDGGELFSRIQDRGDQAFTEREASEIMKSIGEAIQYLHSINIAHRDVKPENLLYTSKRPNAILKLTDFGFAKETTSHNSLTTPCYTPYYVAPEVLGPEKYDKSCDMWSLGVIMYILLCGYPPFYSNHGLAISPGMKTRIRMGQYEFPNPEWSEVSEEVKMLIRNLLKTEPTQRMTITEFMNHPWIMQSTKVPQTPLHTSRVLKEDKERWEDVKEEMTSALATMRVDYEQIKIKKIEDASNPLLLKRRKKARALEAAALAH

SMILES	IC50 [µM]
Oc1cccc2cnccc12	85
Oc1cccc2ccccc12 [1-NAPHTHOL]	> 100
